# Measurements as given in paper PMC7529893, “Structural basis for substrate recognition and chemical inhibition of oncogenic MAGE ubiquitin ligases” (Nature Communications, 2020).
# Biological target: T1, MAGE-A11:PCF11 interaction (GST-MAGE-A11 and FAM-PCF11_4) (Homo sapiens, UniProt P43364)
# T1 construct: GST-MAGE-A11 MHD (human MAGE-A11 MHD amino acid 218-429); made in house; host or cells: E. coli BL21(DE3)
# T1 sequence (P43364 218-429): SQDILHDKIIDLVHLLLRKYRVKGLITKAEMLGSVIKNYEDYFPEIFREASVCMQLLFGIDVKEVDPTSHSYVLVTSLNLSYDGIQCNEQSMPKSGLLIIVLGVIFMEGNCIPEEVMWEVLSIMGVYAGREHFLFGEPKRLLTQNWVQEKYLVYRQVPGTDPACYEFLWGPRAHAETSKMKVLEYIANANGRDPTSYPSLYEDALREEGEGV
# Assay: TR-FRET primary / single point screen at 15 µM
# Format: binding
# Details: single point TR-FRET screening of 797 quinoline compounds against MAGE-A11:PCF11
# Procedure, shortened: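 TR-FRET 520/490 nm emission ratio was read after 90 min at room temperature. Wells held 5 nM GST-MAGE-A11, 5 nM Tb-anti-GST, 200 nM FAM-PCF11_4 and 15 µM compound in Tris pH 7.5 buffer with MgCl2, BSA and DTT. %Inhibition was scaled to DMSO and minus-MAGE-A11 controls.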
row,percent inhibition (TR-FRET),Structure (SMILES)
1,-276.65,CCCN(CCCNc1c2ccc(Cl)cc2nc2ccc(OC)cc12)Cc1cnn(C)c1 [SJ000522980]
2,-1.278,Cc1cc(NC(=O)CN[C@H]2CCN(Cc3cccc(F)c3)C2)c2ccccc2n1 [SJ000832581]
3,28.7514,Fc1cccc(C(F)(F)F)c1CN(CCCCNc1ccnc2cc(Cl)ccc12)Cc1ccccc1 [SJ000520465]
4,26.0931,Fc1ccc(CN(CCCCNc2ccnc3cc(Cl)ccc23)Cc2ccccc2)cc1F [SJ000361197]
5,-85.5732,COc1ccc2ncc(S(=O)(=O)c3ccc(C)cc3)c(N3CCN(c4ccccc4)CC3)c2c1 [SJ000117048]
6,-4.579,CCN1CCN(c2c(S(=O)(=O)c3ccc(C)c(C)c3)cnc3ccc(OC)cc23)CC1 [SJ000247335]
7,-160.284,CCCN(CCCNc1c2ccc(Cl)cc2nc2ccc(OC)cc12)CC(CC)CC [SJ000520939]
8,-252.354,COc1ccc2nc3cc(Cl)ccc3c(NCCCNCc3cn(C)c4ccccc34)c2c1 [SJ000520987]
9,25.1182,O=C(C[C@H]1CC[C@]2(CC1)OO[C@]1(O2)C2CC3CC(C2)CC1C3)NCCCCNc1ccnc2cc(Cl)ccc12 [SJ000578384]
10,-166.235,CCCN(CCCNc1c2ccc(Cl)cc2nc2ccc(OC)cc12)Cc1c[nH]c2ccccc12 [SJ000522978]
11,6.1527,COc1ccc(F)cc1CN1CCC(Nc2ccnc3cc(Cl)ccc23)CC1 [SJ000357493]
12,5.724,CCCN(CCCCNc1ccnc2cc(Cl)ccc12)Cc1cc(Br)ccc1O [SJ000311196]
13,23.5778,CCCCCCN(CCCCNc1ccnc2cc(Cl)ccc12)Cc1ccccc1 [SJ000361212]

# Same assay, conditions: single point TR-FRET screening of quinoline compounds against MAGE-A11:PCF11; 15 µM
row,percent inhibition (TR-FRET),Structure (SMILES)
1,-7.745,CCCN(CCCNc1ccnc2cc(C(F)(F)F)ccc12)Cc1ccccc1[N+](=O)[O-] [SJ000523071]
2,33.3803,Clc1ccc2c(NCCCNCc3csc4ccccc34)ccnc2c1 [SJ000521033]
3,-2.857,COc1cccc(F)c1CN(CCCNc1ccnc2cc(Cl)ccc12)Cc1ccccc1 [SJ000357500]
4,1.449,Cn1ccnc1CNCCCNc1ccnc2cc(Cl)ccc12 [SJ000521040]
5,-10.5199,CCOC(=O)c1cnc2c(C)cc(Cl)cc2c1NCCCN1CCOCC1 [SJ000174094]
6,16.5062,CCCN(CCCNc1ccnc2cc(Cl)ccc12)Cc1ccc(C)s1 [SJ000357433]
7,9.134,CCCN(CCCNc1ccnc2cc(Cl)ccc12)Cc1ccc([N+](=O)[O-])s1 [SJ000522750]
8,14.7648,CN(C)c1ccc(CN(CCCNc2ccnc3cc(Cl)ccc23)Cc2ccccc2)cc1 [SJ000522741]
9,0.7867,CCCN(CCCNc1c2ccc(Cl)cc2nc2ccc(OC)cc12)CCCSC [SJ000522730]
10,9.365,Fc1ccc(Oc2ccc3c(NCCCNCc4ccco4)ccnc3c2)cc1 [SJ000311222]
11,29.5992,CCC(C)CN(CCCNc1ccnc2cc(Cl)ccc12)Cc1ccccc1 (stereo not shown) [SJ000361186]
12,27.4843,FC(F)(F)c1ccc2c(NCCCNCc3cc4ccccc4o3)ccnc2c1 [SJ000521057]
13,16.2262,CCCN(CCCNc1ccnc2cc(Cl)ccc12)Cc1ccc(-c2cccc(Cl)c2)o1 [SJ000523045]
14,-95.379,COc1ccc2nc3cc(Cl)ccc3c(NCCCNCc3ccc(Cl)c([N+](=O)[O-])c3)c2c1 [SJ000523036]
15,16.0865,Clc1ccc2c(NCCCN(Cc3ccccc3)CC3CC=CCC3)ccnc2c1 (stereo not shown) [SJ000311182]
16,5.164,CCCN(CCCNc1ccnc2cc(C(F)(F)F)ccc12)Cc1cccnc1Br [SJ000575180]
17,12.8437,Clc1ccc2c(NCCCN(Cc3ccccc3)Cc3ccoc3)ccnc2c1 [SJ000361170]
18,25.6873,CC(C)(C)CCN(CCCNc1ccnc2cc(Cl)ccc12)Cc1ccccc1 [SJ000357578]
